Measured values taken from US20250186442A1, “Obicetrapib and Ezetimibe Combination Treatment and Fixed Dose Pharmaceutical Compositions” (NewAmsterdam Pharma B.V., priority 2022, published 2025).

Key:
[1] = Kinetic solubility in FeSSIF (pH 5.0) at 37° C.; assay type: physicochemical; details: FeSSIF pH 5.0, 37° C., as obicetrapib free acid
Source text: (§1) The amorphous form has a higher kinetic solubility and dissolution rate than the crystalline form (and by extension obicetrapib itself). Both crystalline and amorphous obicetrapib hemicalcium kinetic solubility determinations were made in biorelevant media at different pHs, namely at about 5.0 (FeSSIF conditions) and at pH of about 6.5 (FaSSIF) conditions as set forth in Example 11.28.
The concentrations in Table W are those of obicetrapib (i.e., the free acid).
(§2) The solids were magnetically stirred at 600 RPM in a shaker bath and samples were drawn with a 1.0 ml syringe at T=15 mins, 30 mins, 60 mins, 90 mins and 120 mins. The solubility was measured using HPLC method provided by the client. The compound was added to 4.0 ml glass vials at approximately 20.0 mg/ml. Samples were agitated with a vortex mixer for about 5 minutes to ensure the presence of undissolved excess powder. The sample collected at each time point was centrifuged at 1200 RPM, filtered with 0.45 μm Polytetrafluoroethylene (PTFE) filters and diluted with methanol before HPLC analysis. In order to minimize the effect of potential analyte adsorption on the filter, the initial 0.5 mL of supernatant passing through the filter was discarded prior to collecting sample for HPLC analysis.

[2] = Kinetic solubility in FaSSIF (pH 6.5) at 37° C.; assay type: physicochemical; details: FaSSIF pH 6.5, 37° C., as obicetrapib free acid
Source text: as §1
The concentrations in Table X are those of obicetrapib (i.e., the free acid).
as §2

[3] = Stability study at 70° C./75% RH (XRPD physical stability, HPLC purity); assay type: physicochemical; details: 70° C. at 75% relative humidity
Source text: FIG. 54 is a plot of x-ray powder diffraction pattern taken of crystalline obicetrapib hemicalcium, and FIG. 55 is a plot of x-ray powder diffraction patterns taken of crystalline obicetrapib hemicalcium under stress conditions. In FIG. 55, there are four diffraction patterns shown based on stability study set forth in Example 11.27. Pattern 1 is an x-ray powder diffraction pattern of a sample of amorphous obicetrapib hemicalcium. Pattern 2 is the x-ray powder diffraction pattern of a sample of crystalline obicetrapib hemicalcium. In pattern 3, the sample of crystalline obicetrapib hemicalcium was exposed to 70° C. at 75% relative humidity for one day. […] Pattern 1 was taken before the sample was placed on stability.
Stability study was conducted on crystalline and amorphous forms of obicetrapib at 70° C./75% relative humidity (RH). The solids were placed into a 4.0 ml glass vial without caps (open condition) and stored at 70° C./75% RH. Samples were pulled out of the stability chamber at day 1 (24 hours) and at 7-day time point. The solids were analyzed by XRPD for physical stability and by HPLC for chemical purity. The sample collected at each time point was dissolved in methanol before HPLC analysis. In order to minimize the effect of potential analyte adsorption on the filter, the initial 0.5 mL of supernatant passing through the filter was discarded prior to collecting sample for HPLC analysis. Purity for each sample was determined based on peak area percent and compared to the sample at T=0.

LDL-C [4] = experiment: ROSE2 phase 2b clinical trial - LDL-C; assay type: in vivo, human; details: ROSE2; ezetimibe added on top of obicetrapib
Procedure: The primary objective of this study is to evaluate the effect of obicetrapib 10 mg+ezetimibe 10 mg combination therapy compared with placebo, when used as an adjunct to high-intensity statin therapy, on LDL-C at Day 84.
The secondary objectives of this study include the following, in hierarchical order: • To evaluate the effect of obicetrapib 10 mg monotherapy compared with placebo, when used as an adjunct to high-intensity statin therapy, on LDL-C at Day 84; • To evaluate the effect of obicetrapib 10 mg+ezetimibe 10 mg combination therapy compared with placebo, when used as an adjunct to high-intensity statin therapy, on ApoB at Day 84; and • To evaluate the effect of obicetrapib 10 mg monotherapy compared with placebo, when used as an adjunct to high-intensity statin therapy, on ApoB at Day 84.
This study will be a placebo-controlled, double-blind, randomized, Phase 2 study to evaluate the efficacy, safety, and tolerability of obicetrapib 10 mg, both in combination with ezetimibe 10 mg and as monotherapy, as an adjunct to high-intensity statin therapy. This study will take place at approximately 20 sites in the United States.
Up to 2 weeks after the Screening Visit, participants will return to the site on Day 1 (Visit 2) and confirm study eligibility before being randomized and beginning treatment. Approximately 114 eligible participants (38 participants per treatment group) will be randomized in a 1:1:1 ratio to 1 of the following treatment groups: • Combination therapy: Obicetrapib 10 mg+ezetimibe 10 mg (administered as one 10 mg obicetrapib tablet and one 10 mg ezetimibe capsule); • Obicetrapib monotherapy: Obicetrapib 10 mg (administered as one 10 mg obicetrapib tablet and 1 placebo capsule); or • Placebo (administered as 1 placebo tablet and 1 placebo capsule).
During the 12-week Treatment Period, the assigned study drugs will be administered by the participants orally with water, once daily on Day 1 to Day 84 at approximately the same time each morning. Participants will return to the site on Day 28 (+2 days), Day 84 (+2 days), and Day 112 (+2 days) for efficacy, safety, and pharmacokinetic (PK) assessments. Participants, Investigators, the Clinical Research Organization (CRO), and the Sponsor will be blinded to all lipid results from Day 1 (Visit 2) for the first participant until all enrolled participants complete the Day 84 (End of Treatment) visit or are withdrawn from the study, in order to protect blinding to treatment assignment.
The primary efficacy endpoint is the percent change from Day 1 to Day 84 in LDL-C for the obicetrapib 10 mg+ezetimibe 10 mg combination treatment group compared with the placebo group.
The secondary efficacy endpoints include the following, in hierarchical order: • Percent change from Day 1 to Day 84 in LDL-C for the obicetrapib 10 mg monotherapy • treatment group compared with the placebo group; • Percent change from Day 1 to Day 84 in ApoB for the obicetrapib 10 mg+ezetimibe 10 mg • combination treatment group compared with the placebo group; and • Percent change from Day 1 to Day 84 in ApoB for the obicetrapib 10 mg monotherapy treatment group compared with the placebo group.
The exploratory efficacy endpoints include the following: • Percent change from Day 1 to Day 84 in non-HDL-C, VLDL-C, HDL-C, TG, ApoE, Lp(a), and HDL-ApoE for the obicetrapib 10 mg+ezetimibe 10 mg combination treatment group compared with the placebo group and for the obicetrapib 10 mg monotherapy treatment group compared with the placebo group; and • Proportion of participants at Day 84 that achieve LDL-C<2.6 mmol/L (<100 mg/dL), LDL-C<1.8 mmol/L (<70 mg/dL), and LDL-C<1.3 mmol/L (<50 mg/dL) for the obicetrapib 10 mg+ezetimibe 10 mg combination treatment group compared with the placebo group and for the obicetrapib 10 mg monotherapy treatment group compared with the placebo group. […]

[5] = in water; cited from earlier work
LDL-C [6] = details: cited from earlier work
[7] = Moisture uptake at high relative humidity (hygroscopicity); assay type: physicochemical; details: relative humidities approaching 90%
Source text: When exposed to relative humidities approaching 90%, moisture uptake has been measured to be typically less than about 5% for example. […] Other drawbacks commonly associated with manufacturing and using amorphous materials are similarly not present. For example, amorphous materials are often challenging to make chemically pure.

| Structure (SMILES) | Concentration in Solution ([1]; 15 mins) | Concentration in Solution ([1]; 30 mins) | Concentration in Solution ([1]; 60 mins) | Concentration in Solution ([1]; 90 mins) | Concentration in Solution ([1]; 120 mins) | Concentration in Solution ([2]; 15 mins) | Concentration in Solution ([2]; 30 mins) | Concentration in Solution ([2]; 60 mins) | Concentration in Solution ([2]; 90 mins) | Concentration in Solution ([2]; 120 mins) | physical stability by x-ray powder diffraction ([3]; 7 days) | physical stability by x-ray powder diffraction ([3]; one day) | additional/incremental (median) reduction of LDL-C (LDL-C [4]) | solubility [5] | incremental reduction in LDL-C levels (LDL-C [6]; ezetimibe in combination with statins (Catapano et al. 2016)) | LDL-C levels reduced (LDL-C [6]; ezetimibe mono-therapy, hyperlipidemic patients (Catapano et al. 2016)) | mean reduction in LDL-C compared with placebo (LDL-C [6]; ezetimibe monotherapy, hypercholesterolemia, meta-analysis of 8 randomized studies) | greater reduction in LDL-C compared with statin alone (LDL-C [6]; statin and ezetimibe in combination, meta-analysis of 27 studies) | physical stability by x-ray powder diffraction ([3]; 14 days) | moisture uptake [7] |
| --- | --- | --- | --- | --- | --- | --- | --- | --- | --- | --- | --- | --- | --- | --- | --- | --- | --- | --- | --- | --- |
| CCOC(=O)N1c2ccc(C(F)(F)F)cc2[C@@H](N(Cc2cc(C(F)(F)F)cc(C(F)(F)F)c2)c2ncc(OCCCC(=O)[O-])cn2)C[C@H]1CC.CCOC(=O)N1c2ccc(C(F)(F)F)cc2[C@@H](N(Cc2cc(C(F)(F)F)cc(C(F)(F)F)c2)c2ncc(OCCCC(=O)[O-])cn2)C[C@H]1CC.[Ca+2] [Crystalline obicetrapib hemicalcium, reference compound] | 85 µg/mL | 169 µg/mL | 369 µg/mL | 453 µg/mL | 529 µg/mL | 30 µg/mL | 48 µg/mL | 84 µg/mL | 107 µg/mL | 144 µg/mL | the result remains the same | near total loss of crystallinity |  |  |  |  |  |  |  |  |
| O=C1[C@H](CC[C@H](O)c2ccc(F)cc2)[C@@H](c2ccc(O)cc2)N1c1ccc(F)cc1 [Ezetimibe, (3R,4S)-1-(4-fluorophenyl)-3-[(3S)-3-(4-fluorophenyl)-3-hydroxypropyl]-4-(4-hydroxyphenyl)azetidin-2-one] |  |  |  |  |  |  |  |  |  |  |  |  | about 32% | practically insoluble | 15-20% | 15-22% | 18.58% | 15.1% |  |  |
| CCOC(=O)N1c2ccc(C(F)(F)F)cc2[C@@H](N(Cc2cc(C(F)(F)F)cc(C(F)(F)F)c2)c2ncc(OCCCC(=O)O)cn2)C[C@H]1CC [amorphous obicetrapib hemicalcium] |  |  |  |  |  |  |  |  |  |  | remained amorphous |  |  |  |  |  |  |  | remained amorphous | less than 5% |
